The data set has as its system rodent lifetime carcinogenesis bioassay, tumor incidence TD50. In words: chronic cancer bioassays in animals – CPDB, compiled studies (AID 1745844).
[1] abbreviates: mouse, strain B6C3F1, females, by gavage, site: lung, lesion: alveolar/bronchiolar adenoma + alveolar/bronchiolar carcinoma, dosed 103 weeks, study length 104 weeks.
Setting [2] is: mouse, strain B6C3F1, males, by gavage, site: any site (literature study), lesion: several types, types named in the paper, dosed 103 weeks, study length 104 weeks.
Where [3] appears, read: mouse, strain B6C3F1, males, by gavage, site: lung, lesion: alveolar/bronchiolar adenoma + alveolar/bronchiolar carcinoma, dosed 103 weeks, study length 104 weeks.
Where [4] appears, read: mouse, strain B6AKF1, females, oral dosing, site: any site (literature study), lesion: several types, types named in the paper, dosed 76 weeks, study length 76 weeks.
Where [5] appears, read: mouse, strain B6AKF1, females, oral dosing, site: lung, lesion: adenoma, dosed 76 weeks, study length 76 weeks.
The mark [6] stands for this setting: mouse, strain B6AKF1, males, oral dosing, site: any site (literature study), lesion: several types, types named in the paper, dosed 76 weeks, study length 76 weeks.
Where [7] appears, read: mouse, strain B6AKF1, males, oral dosing, site: liver, lesion: hepatoma, dosed 76 weeks, study length 76 weeks.
The mark [8] stands for this setting: mouse, strain B6C3F1, females, oral dosing, site: any site (literature study), lesion: several types, types named in the paper, dosed 76 weeks, study length 76 weeks.
[9] abbreviates: mouse, strain B6C3F1, females, oral dosing, site: liver, lesion: hepatoma, dosed 76 weeks, study length 76 weeks.
Setting [10] is: mouse, strain B6C3F1, females, oral dosing, site: lung, lesion: several types, types named in the paper, dosed 76 weeks, study length 76 weeks.
[11] abbreviates: mouse, strain B6C3F1, males, oral dosing, site: any site (literature study), lesion: several types, types named in the paper, dosed 76 weeks, study length 76 weeks.
The mark [12] stands for this setting: mouse, strain B6C3F1, males, oral dosing, site: liver, lesion: hepatoma, dosed 76 weeks, study length 76 weeks.
Setting [13] is: mouse, strain B6C3F1, males, oral dosing, site: lung, lesion: adenoma, dosed 76 weeks, study length 76 weeks.

Where “and” joins values, the source holds several entries; their conditions need not be identical. Identical values can stand only once. Calls of active or inactive are those of the source. The rule behind the calls is not given here.

As for `CCCCCl`, the carcinogen call was “negative (inactive)” (mouse, strain B6C3F1, females, by gavage, site: any site (literature study), lesion: several types, types named in the paper, dosed 103 weeks, study length 104 weeks) and “negative (inactive)” under setting [2]. The TD50 is 1380 mg/kg/day (mouse, strain B6C3F1, females, by gavage, site: liver, lesion: hepatocellular adenoma + hepatocellular carcinoma + neoplastic nodule, dosed 103 weeks, study length 105 weeks); 13100 mg/kg/day under setting [1]; 1160 mg/kg/day (mouse, strain B6C3F1, females, by gavage, site: lung, lesion: alveolar/bronchiolar adenoma + alveolar/bronchiolar carcinoma, dosed 103 weeks, study length 105 weeks); 1710 mg/kg/day (inactive) (mouse, strain B6C3F1, females, by gavage, site: lung, lesion: alveolar/bronchiolar carcinoma, dosed 103 weeks, study length 105 weeks); 423 mg/kg/day under setting [2]; 2830 mg/kg/day (mouse, strain B6C3F1, males, by gavage, site: bone marrow + kidney/pelvis + liver + multiple organs + omentum + spleen + thorax, lesion: hemangiosarcoma, dosed 103 weeks, study length 104 weeks). Moreover, the TD50 is, setting by setting: (mouse, strain B6C3F1, males, by gavage, site: liver, lesion: hepatocellular adenoma + hepatocellular carcinoma + neoplastic nodule, dosed 103 weeks, study length 104 weeks) 808 mg/kg/day and 623 mg/kg/day; (mouse, strain B6C3F1, males, by gavage, site: liver, lesion: hepatocellular adenoma + hepatocellular carcinoma, dosed 103 weeks, study length 104 weeks) 808 mg/kg/day (inactive); under setting [3], 3190 mg/kg/day; (rat, strain Fischer 344, females, by gavage, site: any site (literature study), lesion: several types, types named in the paper, dosed 103 weeks, study length 105 weeks) 100 mg/kg/day (inactive); (rat, strain Fischer 344, females, by gavage, site: liver, lesion: hepatocellular adenoma + hepatocellular carcinoma + neoplastic nodule, dosed 103 weeks, study length 105 weeks) 1510 mg/kg/day; (rat, strain Fischer 344, males, by gavage, site: any site (literature study), lesion: several types, types named in the paper, dosed 103 weeks, study length 104 weeks) 40.5 mg/kg/day. Also, under “rat, strain Fischer 344, males, by gavage, site: testis, lesion: interstitial-cell tumor, dosed 103 weeks, study length 104 weeks”, the TD50 is 45.1 mg/kg/day (inactive).
`CCN(CC)C(=S)SSC(=S)N(CC)CC`: the TD50 runs as follows: under setting [4], 1940 mg/kg/day; under setting [5], 4140 mg/kg/day; under setting [6], 10.1 mg/kg/day; under setting [7], 197 mg/kg/day; (mouse, strain B6AKF1, males, oral dosing, site: subcutaneous tissue, lesion: fibrosarcoma, dosed 76 weeks, study length 76 weeks) 15.4 mg/kg/day; (mouse, strain B6C3F1, females, in feed, site: liver, lesion: hepatocellular adenoma + hepatocellular carcinoma + neoplastic nodule, dosed 108 weeks, study length 108 weeks) 120 mg/kg/day. The TD50 amounted to 323 mg/kg/day (mouse, strain B6C3F1, females, in feed, site: lung, lesion: alveolar/bronchiolar adenoma + alveolar/bronchiolar carcinoma, dosed 108 weeks, study length 108 weeks); 64.5 mg/kg/day under setting [8]; 283 mg/kg/day under setting [9]; 283 mg/kg/day (mouse, strain B6C3F1, females, oral dosing, site: lung, lesion: adenoma, dosed 76 weeks, study length 76 weeks); 283 mg/kg/day (mouse, strain B6C3F1, females, oral dosing, site: lung, lesion: carcinoma, dosed 76 weeks, study length 76 weeks); 138 mg/kg/day under setting [10]. The TD50 is 17 mg/kg/day under setting [11]; 23.7 mg/kg/day under setting [12]; 43.2 mg/kg/day under setting [13]; 193 mg/kg/day (rat, strain Charles River CD (Sprague-Dawley), females, in feed, site: any site (literature study), lesion: several types, types named in the paper, dosed 78 weeks, study length 78 weeks); 41100 mg/kg/day (inactive) (rat, strain Charles River CD (Sprague-Dawley), females, in feed, site: liver, lesion: neoplastic nodule, dosed 104 weeks, study length 104 weeks); 68.9 mg/kg/day (rat, strain Charles River CD (Sprague-Dawley), females, in feed, site: mammary gland, lesion: several types, types named in the paper, dosed 78 weeks, study length 78 weeks). Further, the TD50 (rat, strain Charles River CD (Sprague-Dawley), males, in feed, site: liver, lesion: hepatocellular tumor, dosed 78 weeks, study length 78 weeks) was determined as 366 mg/kg/day; the TD50 (rat, strain Charles River CD (Sprague-Dawley), males, in feed, site: liver, lesion: neoplastic nodule, dosed 104 weeks, study length 104 weeks) is 678 mg/kg/day (inactive); the TD50 (rat, strain Fischer 344, females, in feed, site: liver, lesion: hepatocellular adenoma + hepatocellular carcinoma + neoplastic nodule, dosed 107 weeks, study length 107 weeks) was found to be 1430 mg/kg/day. Further, the carcinogen call was “negative (inactive)” (mouse, strain B6C3F1, females, in feed, site: any site (literature study), lesion: several types, types named in the paper, dosed 108 weeks, study length 108 weeks); “negative (inactive)” (mouse, strain B6C3F1, males, in feed, site: any site (literature study), lesion: several types, types named in the paper, dosed 108 weeks, study length 108 weeks); “negative (inactive)” (rat, strain Charles River CD (Sprague-Dawley), females, in feed, site: any site (literature study), lesion: one or several types, types not named, dosed 104 weeks, study length 104 weeks); “negative (inactive)” (rat, strain Charles River CD (Sprague-Dawley), males, in feed, site: any site (literature study), lesion: one or several types, types not named, dosed 104 weeks, study length 104 weeks); “negative (inactive)” (rat, strain Charles River CD (Sprague-Dawley), males, in feed, site: liver, lesion: hepatocellular carcinoma, dosed 104 weeks, study length 104 weeks); “negative (inactive)” (rat, strain Fischer 344, females, in feed, site: any site (literature study), lesion: several types, types named in the paper, dosed 107 weeks, study length 107 weeks). Moreover, under “rat, strain Fischer 344, males, in feed, site: any site (literature study), lesion: several types, types named in the paper, dosed 107 weeks, study length 107 weeks”, the carcinogen call is “negative (inactive)”.
As for `CC(=O)OC(OC(C)=O)c1ccc([N+](=O)[O-])o1`, the carcinogen call (rat, strain Holtzman albino (Sprague-Dawley derived), females, in feed, site: mammary tissue, wider than the gland, lesion: one or several types, types not named, dosed 36 weeks, study length 54 weeks) was “negative (inactive)”. Moreover, the TD50 (rat, strain Holtzman albino (Sprague-Dawley derived), females, in feed, site: mammary tissue, wider than the gland, lesion: one or several types, types not named, dosed 44 weeks, study length 60 weeks) was 105 mg/kg/day (inactive).
Turning to `C=CCCl`, the TD50 is 343 mg/kg/day (mouse, strain B6C3F1, females, by gavage, site: any site (literature study), lesion: several types, types named in the paper, dosed 78 weeks, study length 91 weeks); 2180 mg/kg/day (mouse, strain B6C3F1, females, by gavage, site: liver, lesion: hepatocellular adenoma + hepatocellular carcinoma + neoplastic nodule, dosed 78 weeks, study length 91 weeks); 1250 mg/kg/day (mouse, strain B6C3F1, females, by gavage, site: lung, lesion: alveolar/bronchiolar adenoma + alveolar/bronchiolar carcinoma, dosed 78 weeks, study length 91 weeks); 706 mg/kg/day (mouse, strain B6C3F1, females, by gavage, site: stomach, lesion: squamous-cell carcinoma + squamous-cell papilloma, dosed 78 weeks, study length 91 weeks); 184 mg/kg/day (mouse, strain B6C3F1, males, by gavage, site: any site (literature study), lesion: several types, types named in the paper, dosed 67 weeks, study length 91 weeks); 457 mg/kg/day (mouse, strain B6C3F1, males, by gavage, site: liver, lesion: hepatocellular adenoma + hepatocellular carcinoma + neoplastic nodule, dosed 67 weeks, study length 91 weeks). The TD50 was 727 mg/kg/day (mouse, strain B6C3F1, males, by gavage, site: stomach, lesion: squamous-cell carcinoma + squamous-cell papilloma, dosed 67 weeks, study length 91 weeks); 35.2 mg/kg/day (rat, strain Osborne-Mendel, females, by gavage, site: any site (literature study), lesion: several types, types named in the paper, dosed 78 weeks, study length 110 weeks); 28.1 mg/kg/day (rat, strain Osborne-Mendel, males, by gavage, site: any site (literature study), lesion: several types, types named in the paper, dosed 78 weeks, study length 110 weeks).
As to `Oc1ccc(OCc2ccccc2)cc1`, the carcinogen call reads like this: under setting [4], “negative (inactive)”; (mouse, strain B6AKF1, females, oral dosing, site: liver, lesion: hepatoma, dosed 76 weeks, study length 76 weeks) “negative (inactive)”; under setting [5], “negative (inactive)”; under setting [6], “negative (inactive)”; under setting [7], “negative (inactive)”; (mouse, strain B6AKF1, males, oral dosing, site: lung, lesion: adenoma, dosed 76 weeks, study length 76 weeks) “negative (inactive)”. In addition, the carcinogen call reads like this: under setting [9], “negative (inactive)”; under setting [10], “negative (inactive)”. The TD50 is, setting by setting: under setting [8], 1230 mg/kg/day (inactive); under setting [11], 141 mg/kg/day (inactive); under setting [12], 382 mg/kg/day (inactive); under setting [13], 382 mg/kg/day (inactive).
Regarding `O=[N+]([O-])c1ccc(Nc2ccc(Nc3ccccc3)c(S(=O)(=O)O)c2)c([N+](=O)[O-])c1`, the TD50 is 7550 mg/kg/day (mouse, strain B6C3F1, females, by gavage, site: liver, lesion: hepatocellular adenoma + hepatocellular carcinoma + neoplastic nodule, dosed 103 weeks, study length 104 weeks); 11600 mg/kg/day under setting [1]; 2590 mg/kg/day (inactive) (mouse, strain B6C3F1, females, by gavage, site: lung, lesion: alveolar/bronchiolar adenoma, dosed 103 weeks, study length 104 weeks); 372 mg/kg/day under setting [2]; 184 mg/kg/day (inactive) (mouse, strain B6C3F1, males, by gavage, site: liver, lesion: hepatocellular carcinoma, dosed 103 weeks, study length 104 weeks); 5860 mg/kg/day under setting [3]. Also, the TD50 (rat, strain Fischer 344, females, by gavage, site: any site (literature study), lesion: several types, types named in the paper, dosed 103 weeks, study length 104 weeks) is 361 mg/kg/day; the TD50 (rat, strain Fischer 344, females, by gavage, site: kidney, lesion: transitional-cell carcinoma, dosed 103 weeks, study length 104 weeks) was 1710 mg/kg/day; the TD50 (rat, strain Fischer 344, females, by gavage, site: liver, lesion: hepatocellular adenoma + hepatocellular carcinoma + neoplastic nodule, dosed 103 weeks, study length 104 weeks) was determined as 5090 mg/kg/day; the TD50 (rat, strain Fischer 344, males, by gavage, site: any site (literature study), lesion: several types, types named in the paper, dosed 100 weeks, study length 104 weeks) was 270 mg/kg/day (inactive).

For orientation: TD50 means the dose at which the toxic effect under study appears in half of the subjects.

Source of the values: PubChem BioAssay AID1745844 (Carcinogenic Potency Database (CPDB), 2022).
